pKi: −log10 of the molar value.
target: full-length ATR (Homo sapiens (Human), UniProt Q13535); assay: ATR Inhibition Assay (radioactive-phosphate incorporation); format: biochemical; settings: read-out: ATR Ki
Procedure, shortened: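 Ki(app) was derived by non-linear regression of background-corrected initial rates of 33P incorporation into an 800 μM target peptide, read by phosphocellulose filter scintillation counting. Reaction conditions: 5 nM full-length ATR, 10 μM [γ-33P]ATP, pH 7.5 Tris buffer with MgCl2 and DTT, 25 °C, 10-min preincubation, 24 h run.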

Sequence of full-length ATR (Q13535 whole entry): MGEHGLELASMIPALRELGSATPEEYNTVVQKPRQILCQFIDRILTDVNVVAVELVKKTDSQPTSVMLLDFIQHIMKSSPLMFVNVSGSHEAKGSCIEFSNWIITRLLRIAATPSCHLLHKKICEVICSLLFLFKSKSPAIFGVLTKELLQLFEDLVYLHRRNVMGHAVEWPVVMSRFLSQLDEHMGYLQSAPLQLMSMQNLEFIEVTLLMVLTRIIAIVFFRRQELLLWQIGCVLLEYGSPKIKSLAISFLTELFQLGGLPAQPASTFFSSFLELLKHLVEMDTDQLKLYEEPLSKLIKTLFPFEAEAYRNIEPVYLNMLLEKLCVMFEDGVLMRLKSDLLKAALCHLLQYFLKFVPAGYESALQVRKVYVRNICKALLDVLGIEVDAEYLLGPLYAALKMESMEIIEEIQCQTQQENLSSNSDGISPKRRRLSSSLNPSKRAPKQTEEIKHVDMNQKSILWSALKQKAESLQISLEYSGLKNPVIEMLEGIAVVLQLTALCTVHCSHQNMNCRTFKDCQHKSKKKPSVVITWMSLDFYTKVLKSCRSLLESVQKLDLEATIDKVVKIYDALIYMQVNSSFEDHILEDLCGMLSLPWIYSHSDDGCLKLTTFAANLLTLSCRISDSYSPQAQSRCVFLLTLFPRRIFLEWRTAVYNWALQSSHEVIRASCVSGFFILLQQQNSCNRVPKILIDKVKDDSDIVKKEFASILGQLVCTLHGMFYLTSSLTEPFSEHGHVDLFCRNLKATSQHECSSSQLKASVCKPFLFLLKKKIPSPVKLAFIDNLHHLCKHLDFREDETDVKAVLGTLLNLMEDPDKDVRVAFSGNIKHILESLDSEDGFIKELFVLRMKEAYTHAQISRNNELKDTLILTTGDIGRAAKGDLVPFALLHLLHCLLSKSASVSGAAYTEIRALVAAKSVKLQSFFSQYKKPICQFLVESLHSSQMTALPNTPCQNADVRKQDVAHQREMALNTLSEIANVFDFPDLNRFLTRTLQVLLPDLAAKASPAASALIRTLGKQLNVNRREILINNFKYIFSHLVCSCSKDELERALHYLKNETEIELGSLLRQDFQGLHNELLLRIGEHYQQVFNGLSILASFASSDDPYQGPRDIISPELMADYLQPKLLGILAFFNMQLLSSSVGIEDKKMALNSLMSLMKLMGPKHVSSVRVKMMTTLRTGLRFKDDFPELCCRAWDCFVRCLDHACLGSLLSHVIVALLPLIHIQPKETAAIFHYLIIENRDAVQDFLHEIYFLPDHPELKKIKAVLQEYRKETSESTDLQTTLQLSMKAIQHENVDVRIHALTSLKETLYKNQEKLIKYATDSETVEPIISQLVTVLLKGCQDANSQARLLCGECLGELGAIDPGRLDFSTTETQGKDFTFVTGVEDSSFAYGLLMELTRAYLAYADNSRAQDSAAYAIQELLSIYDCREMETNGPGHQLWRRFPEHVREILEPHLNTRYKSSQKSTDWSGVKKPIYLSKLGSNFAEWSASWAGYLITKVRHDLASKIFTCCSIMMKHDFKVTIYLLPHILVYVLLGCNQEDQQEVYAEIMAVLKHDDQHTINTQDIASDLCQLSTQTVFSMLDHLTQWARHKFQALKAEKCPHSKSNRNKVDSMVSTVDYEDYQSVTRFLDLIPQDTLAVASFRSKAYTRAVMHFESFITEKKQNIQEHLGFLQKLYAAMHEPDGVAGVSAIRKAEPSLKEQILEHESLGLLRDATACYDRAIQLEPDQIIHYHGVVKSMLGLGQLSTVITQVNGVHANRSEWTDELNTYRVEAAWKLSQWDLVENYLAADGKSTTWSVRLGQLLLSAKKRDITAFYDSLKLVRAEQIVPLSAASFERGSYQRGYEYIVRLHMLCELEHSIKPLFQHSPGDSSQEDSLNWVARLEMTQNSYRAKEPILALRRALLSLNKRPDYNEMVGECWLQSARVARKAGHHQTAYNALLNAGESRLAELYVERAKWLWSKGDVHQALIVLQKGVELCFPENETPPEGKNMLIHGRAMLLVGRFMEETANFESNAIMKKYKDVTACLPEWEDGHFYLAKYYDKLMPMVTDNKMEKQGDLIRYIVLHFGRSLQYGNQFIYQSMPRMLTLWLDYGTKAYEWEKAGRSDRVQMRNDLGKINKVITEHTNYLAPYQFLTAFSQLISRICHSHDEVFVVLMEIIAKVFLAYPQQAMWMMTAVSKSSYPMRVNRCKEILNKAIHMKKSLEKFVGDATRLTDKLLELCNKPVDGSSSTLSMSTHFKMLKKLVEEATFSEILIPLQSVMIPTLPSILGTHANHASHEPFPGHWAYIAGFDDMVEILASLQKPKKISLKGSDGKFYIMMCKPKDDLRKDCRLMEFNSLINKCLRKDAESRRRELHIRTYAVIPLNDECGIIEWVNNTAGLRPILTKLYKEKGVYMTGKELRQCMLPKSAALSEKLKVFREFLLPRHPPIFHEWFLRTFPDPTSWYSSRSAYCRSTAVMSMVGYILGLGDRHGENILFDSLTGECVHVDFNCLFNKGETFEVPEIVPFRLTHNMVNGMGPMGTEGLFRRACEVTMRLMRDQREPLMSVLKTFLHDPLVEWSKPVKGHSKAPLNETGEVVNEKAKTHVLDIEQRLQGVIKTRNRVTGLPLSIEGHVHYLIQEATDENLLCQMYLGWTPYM

CN(C)C(=O)c1ccc(-c2cnc(N)c(-c3nnc(-c4ccccc4I)o3)n2)cc1 [IA-205, 4-[5-amino-6-[5-(2-iodophenyl)-1,3,4-oxadiazol-2-yl]pyrazin-2-yl]-N,N-dimethyl-benzamide] and CN(C)C(=O)c1ccc(-c2cnc(N)c(-c3nnc(-c4ccsc4)o3)n2)cc1 [IA-262, 4-[5-amino-6-[5-(3-thienyl)-1,3,4-oxadiazol-2-yl]pyrazin-2-yl]-N,N-dimethyl-benzamide] cannot be ordered by pKi: at least 8.00 for the first, at least 8.00 for the second.

CC(C)S(=O)(=O)c1ccc(-c2cnc(N)c(-c3nnc(-c4ccc(C5CNC5)cc4)o3)n2)cc1 [IA-285, 3-[5-[4-(azetidin-3-yl)phenyl]-1,3,4-oxadiazol-2-yl]-5-(4-isopropylsulfonylphenyl)pyrazin-2-amine] and CC(C)S(=O)(=O)c1ccc(-c2cnc(N)c(-c3nnc(-c4cccc(CN(C)C)c4)o3)n2)cc1 [IA-204, 3-[5-[3-(dimethylaminomethyl)phenyl]-1,3,4-oxadiazol-2-yl]-5-(4-isopropylsulfonylphenyl)pyrazin-2-amine] cannot be ordered by pKi: at least 8.00 for the first, 7.00 to 8.00 for the second.

Nc1ncc(-c2ccc(C(=O)N3CCCNCC3)cc2)nc1C(=O)Nc1ccccc1 [Compound I-43, 6-(4-(1,4-diazepane-1-carbonyl)phenyl)-3-amino-N-phenylpyrazine-2-carboxamide] and Nc1ncc(-c2ccc(C(=O)N3CCCNCC3)cc2)nc1C(=O)Nc1nc2ccccc2s1 [Compound V-9] fall in the same range of pKi: 7.00 to 8.00 for the first, 7.00 to 8.00 for the second.

CC(=O)c1cccc(-c2cnc(N)c(C(=O)Nc3ccccc3)n2)c1 [Compound I-22, 6-(3-acetylphenyl)-3-amino-N-phenylpyrazine-2-carboxamide] and CS(=O)(=O)Nc1cccc(-c2cnc(N)c(C(=O)Nc3ccccc3)n2)c1 [Compound I-25, 3-amino-6-(3-(methylsulfonamido)phenyl)-N-phenylpyrazine-2-carboxamide] fall in the same range of pKi: 7.00 to 8.00 for the first, 7.00 to 8.00 for the second.

COCCN(C)C(=O)c1ccc(-c2cnc(N)c(C(=O)Nc3ccccc3)n2)cc1 [Compound I-45, 3-amino-6-(4-((2-methoxyethyl)(methyl)carbamoyl)phenyl)-N-phenylpyrazine-2-carboxamide] and CN(C)CCN(C)C(=O)c1ccc(-c2cnc(N)c(C(=O)Nc3ccccc3)n2)cc1 [Compound I-68, 3-amino-6-(4-((2-(dimethylamino)ethyl)(methyl)carbamoyl)phenyl)-N-phenylpyrazine-2-carboxamide] fall in the same range of pKi: 7.00 to 8.00 for the first, 7.00 to 8.00 for the second.

First: COc1ccc(-c2nnc(-c3nc(-c4ccc(C(=O)N(C)C)cc4)cnc3N)o2)cc1 [IA-157, 4-[5-amino-6-[5-(4-methoxyphenyl)-1,3,4-oxadiazol-2-yl]pyrazin-2-yl]-N,N-dimethyl-benzamide]
Second: CN(C)C(=O)c1ccc(-c2cnc(N)c(-c3nnc(N(C)c4ccccc4)o3)n2)cc1 [IA-250, 4-[5-amino-6-[5-(N-methylanilino)-1,3,4-oxadiazol-2-yl]pyrazin-2-yl]-N,N-dimethyl-benzamide]
The pKi of the first is higher: 7.00 to 8.00 for the first, 5.30 to 7.00 for the second. The first binds more tightly here.

First: CN(C)C(=O)c1ccc(-c2cnc(N)c(-c3nnc(Nc4ccccc4C#N)s3)n2)cc1 [IVA-3, 4-[5-amino-6-[5-(2-cyanoanilino)-1,3,4-thiadiazol-2-yl]pyrazin-2-yl]-N,N-dimethyl-benzamide]
Second: CN(C)C(=O)c1ccc(-c2cnc(N)c(-c3nnc(-c4ccccc4)o3)n2)c(Cl)c1 [IA-46]
The pKi of the first is lower: 5.30 to 7.00 for the first, 7.00 to 8.00 for the second.

Nc1ncc(-c2ccccc2F)nc1C(=O)Nc1ccccc1 [Compound I-14, 3-amino-6-(2-fluorophenyl)-N-phenylpyrazine-2-carboxamide] and Cc1ccccc1-c1cnc(N)c(C(=O)Nc2ccccc2)n1 [Compound I-11, 3-amino-N-phenyl-6-o-tolylpyrazine-2-carboxamide] fall in the same range of pKi: 5.30 to 7.00 for the first, 5.30 to 7.00 for the second.

Nc1ncc(-c2ccc(C(=O)N3CCCN(C=O)CC3)cc2)nc1-c1nnc(-c2ccccc2)o1 [IA-29] and Nc1ncc(-c2ccc(C(=O)N3CCNCC3)c(F)c2)nc1-c1nnc(-c2ccccc2)o1 [IA-7] cannot be ordered by pKi: at least 8.00 for the first, 7.00 to 8.00 for the second.

CC(C)S(=O)(=O)c1ccc(-c2cnc(N)c(-c3nnc(C(=O)N4CC(N)C4)o3)n2)cc1 [IA-120, (3-aminoazetidin-1-yl)-[5-[3-amino-6-(4-isopropylsulfonylphenyl)pyrazin-2-yl]-1,3,4-oxadiazol-2-yl]methanone] and CC(C)S(=O)(=O)c1ccc(-c2cnc(N)c(-c3nnc(C(=O)O)o3)n2)cc1 [IA-128, 5-[3-amino-6-(4-isopropylsulfonylphenyl)pyrazin-2-yl]-1,3,4-oxadiazole-2-carboxylic acid] cannot be ordered by pKi: 7.00 to 8.00 for the first, at least 8.00 for the second.

CNCc1ccc(-c2cc(-c3nc(-c4ccc(S(=O)(=O)C(C)C)cc4)cnc3N)on2)c(F)c1 [IIA-14, 3-[3-[2-fluoro-4-(methylaminomethyl)phenyl]isoxazol-5-yl]-5-(4-isopropylsulfonylphenyl)pyrazin-2-amine] and CC(C)S(=O)(=O)c1ccc(-c2cnc(N)c(-c3cc(-c4ccc(CN)cc4)no3)n2)cc1 [IIA-5, 3-[3-[4-(aminomethyl)phenyl]isoxazol-5-yl]-5-(4-isopropylsulfonylphenyl)pyrazin-2-amine] cannot be ordered by pKi: at least 8.00 for the first, at least 8.00 for the second.

N#Cc1cnccc1-c1cnc(N)c(C(=O)Nc2ccccc2)n1 [Compound I-2, 3-amino-6-(3-cyanopyridin-4-yl)-N-phenylpyrazine-2-carboxamide] and Nc1ncc(-c2ccc3[nH]ncc3c2)nc1C(=O)Nc1ccccc1 [Compound I-39, 3-amino-6-(1H-indazol-5-yl)-N-phenylpyrazine-2-carboxamide] cannot be ordered by pKi: at least 8.00 for the first, 7.00 to 8.00 for the second.

COc1ccccc1NC(=O)c1nc(-c2cccs2)cnc1N [Compound I-35, 3-amino-N-(2-methoxyphenyl)-6-(thiophen-2-yl)pyrazine-2-carboxamide] and Nc1ncc(-c2cccnc2)nc1C(=O)Nc1ccc2cc[nH]c2c1 [Compound V-16] fall in the same range of pKi: 7.00 to 8.00 for the first, 7.00 to 8.00 for the second.

Compared with NC(=O)C1CCN(C(=O)c2cccc(-c3cnc(N)c(C(=O)Nc4ccccc4)n3)c2)CC1 [Compound I-62, 3-amino-6-(3-(4-carbamoylpiperidine-1-carbonyl)phenyl)-N-phenylpyrazine-2-carboxamide], Nc1ncc(-c2ccc(F)c(C(=O)N3CCOCC3)c2)nc1-c1nc2ccccc2[nH]1 [Compound I-131, (5-(5-amino-6-(1H-benzo[d]imidazol-2-yl)pyrazin-2-yl)-2-fluorophenyl) (morpholino)methanone] is higher in pKi: 5.30 to 7.00 for the first, 7.00 to 8.00 for the second.

Nc1ncc(-c2cccnc2)nc1-c1nnc(-c2cccs2)[nH]1 [Compound I-142, 5-(pyridin-3-yl)-3-(5-(thiophen-2-yl)-4H-1,2,4-triazol-3-yl)pyrazin-2-amine] and Nc1ncc(-c2cccnc2)nc1-c1nnc(-c2ccccc2)[nH]1 [Compound I-138, 3-(5-phenyl-4H-1,2,4-triazol-3-yl)-5-(pyridin-3-yl)pyrazin-2-amine] fall in the same range of pKi: 7.00 to 8.00 for the first, 7.00 to 8.00 for the second.

CC(CCN(C)C)S(=O)(=O)c1ccc(-c2cnc(N)c(-c3nnc(-c4ccccc4F)o3)n2)cc1 (stereo not drawn) [IA-343, 5-[4-[3-(dimethylamino)-1-methyl-propyl]sulfonylphenyl]-3-[5-(2-fluorophenyl)-1,3,4-oxadiazol-2-yl]pyrazin-2-amine] and CCC(C)S(=O)(=O)c1ccc(-c2cnc(N)c(-c3nnc(-c4ccc(CNC)cc4F)o3)n2)cc1 (stereo not drawn) [IA-338, 3-[5-[2-fluoro-4-(methylaminomethyl)phenyl]-1,3,4-oxadiazol-2-yl]-5-(4-sec-butylsulfonylphenyl)pyrazin-2-amine] cannot be ordered by pKi: at least 8.00 for the first, at least 8.00 for the second.

CC(C)S(=O)(=O)c1ccc(-c2cnc(N)c(-c3nnc(-c4ccc(CNCC(F)F)s4)o3)n2)cc1 [IA-236, 3-[5-[5-[(2,2-difluoroethylamino)methyl]-2-thienyl]-1,3,4-oxadiazol-2-yl]-5-(4-isopropylsulfonylphenyl)pyrazin-2-amine] and Cc1ccsc1-c1nnc(-c2nc(-c3ccc(S(=O)(=O)C(C)C)cc3)cnc2N)o1 [IA-276, 5-(4-isopropylsulfonylphenyl)-3-[5-(3-methyl-2-thienyl)-1,3,4-oxadiazol-2-yl]pyrazin-2-amine] cannot be ordered by pKi: 7.00 to 8.00 for the first, at least 8.00 for the second.

First: CC#Cc1cc(C(=O)N(C)C)ccc1-c1cnc(N)c(-c2nnc(-c3ccccc3)o2)n1 [IA-268, 4-[5-amino-6-(5-phenyl-1,3,4-oxadiazol-2-yl)pyrazin-2-yl]-N,N-dimethyl-3-prop-1-ynyl-benzamide]
Second: Nc1ncc(-c2ccccc2Br)nc1-c1nnc(-c2ccccc2)o1 [IA-176, 5-(2-bromophenyl)-3-(5-phenyl-1,3,4-oxadiazol-2-yl)pyrazin-2-amine]
The pKi of the first is higher: 7.00 to 8.00 for the first, 5.30 to 7.00 for the second.

Nc1ncc(-c2cccnc2)nc1-c1noc(-c2ccccc2)n1 [Compound I-145] and CS(=O)(=O)c1cccc(-c2cnc(N)c(-c3nc4ccccc4[nH]3)n2)c1 [Compound I-122, 3-(1H-benzo[d]imidazol-2-yl)-5-(3-(methylsulfonyl)phenyl)pyrazin-2-amine] fall in the same range of pKi: 7.00 to 8.00 for the first, 7.00 to 8.00 for the second.

Compared with CS(=O)(=O)c1ccc(-c2cnc(N)c(-c3nc4cccc(O)c4[nH]3)n2)cc1 [Compound I-109, 2-(3-amino-6-(4-(methylsulfonyl)phenyl)pyrazin-2-yl)-1H-benzo[d]imidazol-7-ol], CC(N)C(=O)Nc1nnc(-c2nc(-c3ccc(S(=O)(=O)C(C)C)cc3)cnc2N)o1 (stereo not drawn) [IA-272, 2-amino-N-[5-[3-amino-6-(4-isopropylsulfonylphenyl)pyrazin-2-yl]-1,3,4-oxadiazol-2-yl]propanamide] is lower in pKi: at least 8.00 for the first, 5.30 to 7.00 for the second.

Compared with CC(C)S(=O)(=O)c1ccc(-c2cnc(N)c(-c3nnc(C(=O)NC4CCNC4)o3)n2)cc1 (stereo not drawn) [IA-114, 5-[3-amino-6-(4-isopropylsulfonylphenyl)pyrazin-2-yl]-N-pyrrolidin-3-yl-1,3,4-oxadiazole-2-carboxamide], CN(C)C(=O)c1ccc(-c2cnc(N)c(-c3nnc(-c4ccccc4OCCNC(=O)OC(C)(C)C)o3)n2)cc1 [IA-175, tert-butyl N-[2-[2-[5-[3-amino-6-[4-(dimethylcarbamoyl)phenyl]pyrazin-2-yl]-1,3,4-oxadiazol-2-yl]phenoxy]ethyl]carbamate] is higher in pKi: 5.30 to 7.00 for the first, at least 8.00 for the second.
